We go through five molecules from patent US20150355163A1, “T-TYPE CALCIUM CHANNEL INHIBITORS FOR TREATMENT OF CANCER” (TAU THERAPEUTICS LLC, priority 2013, published 2015).

Entries after “also recorded” stand apart in the source; their conditions may differ. Read-outs that look alike come from different tables or passages of the source.

The subject of series [1] is cancer cells. The series is described as follows: Cancer cell proliferation. In kind it is cell-based. The following applies: in words.
The subject of series [2] is T1, T-type Ca^2+ channel.
T1 construct: other: cell membrane potential about −90 mV, in words; other: in words; selectivity for the −90 mV state relative to −40 mV; other: cell membrane potential about −30 mV to −60 mV
The series is described as follows: Inhibition of T-type Ca^2+ channel activity in a cell with the membrane potential held (patch-clamp). The class given is cell-based. The following applies: in words; for inhibition of T-type Ca^2+ channel activity: cell membrane potential about −90 mV. An excerpt:
This disclosure further provides methods of identifying compounds that inhibit T-type Ca^2+ channel activity in a cell when the cell membrane potential is about −90 mV. These methods include determining the ability of a compound to inhibit T-type Ca^2+ channel activity in a cell when the cell membrane potential is held at about −90 mV. The membrane potential can be held at about −90 mV by techniques known in the art, such as the patch-clamp technique. The ability of a compound to inhibit T-type Ca^2+ channel activity in a cell when the cell membrane potential is about −90 mV can be determined, for example, by determining the ability of the compound to prevent growth factor-stimulated calcium entry into the cell. Calcium entry into the cell can be determined by measuring increases in levels of intracellular calcium, such as by use of a calcium sensitive fluorescent dye.
This disclosure further provides methods of identifying compounds that inhibit T-type Ca^2+ channel activity in a cell when the cell membrane potential is about −90 mV. Such compounds can be identified by measuring inhibition of T-type Ca^2+ channel activity in a cell using standard electrophysiological methods such as patch clamp or by measuring the ability of a pharmaceutical agent to block calcium entry into a cell, such as a cancer cell, when that cell is stimulated by a mitogen, such as a growth factor. Such methods are disclosed, for example, in Densmore, et al., FEBS Lett. 312:161-164 (1992); Haverstick, et al., Mol. Biol. Cell 4:173-184 (1993); and Gomora et al., J. Pharmacol. Exp. Ther. 292:96-103 (2000), the contents of which are incorporated by reference. Calcium entry can be determined by methods such as intracellular entrapment of a Ca^2+ sensitive fluorescent dye.
In some embodiments, the cell membrane potential can be controlled using a patch-clamp technique. In some embodiments cell membrane potential can be controlled using any other technique described herein or known in the art.
For orientation: In patch-clamp work, channel activity is measured electrically.

In series [3] the test system is T1, T-type Ca^2+ channel. To be noted: cited from earlier work; for potency for inhibition of the T-type calcium channel: in words; for IC50: read-out: IC50 for inhibiting T-type Ca^2+ channel activity.
For series [4], the system named is human glioblastoma. To be noted: seven day course of mibefradil, then five day course of temozolomide; cited from earlier work.
In series [5] the test system is T-type Ca^2+ channel. The following applies: ratio; cited from earlier work.
The target of series [6] is CYP 450 3A4 (Homo sapiens, UniProt P08684). To be noted: in words; cited from earlier work.
The conditions of series [7]: used by almost a million patients; cited from earlier work.

Chain of CYP 450 3A4 (P08684 whole entry): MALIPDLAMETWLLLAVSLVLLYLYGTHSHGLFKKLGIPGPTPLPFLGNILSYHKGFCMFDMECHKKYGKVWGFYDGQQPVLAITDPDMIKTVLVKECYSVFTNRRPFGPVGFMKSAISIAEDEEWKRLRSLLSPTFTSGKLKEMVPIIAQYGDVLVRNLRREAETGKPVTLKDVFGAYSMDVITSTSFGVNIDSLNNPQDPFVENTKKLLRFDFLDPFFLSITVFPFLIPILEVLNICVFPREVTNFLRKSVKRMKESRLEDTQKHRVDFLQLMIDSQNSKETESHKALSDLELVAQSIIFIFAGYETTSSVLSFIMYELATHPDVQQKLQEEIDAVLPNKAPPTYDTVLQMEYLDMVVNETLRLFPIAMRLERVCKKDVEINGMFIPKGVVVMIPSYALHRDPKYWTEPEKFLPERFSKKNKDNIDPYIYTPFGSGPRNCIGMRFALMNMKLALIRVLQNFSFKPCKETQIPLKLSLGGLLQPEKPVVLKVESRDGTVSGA

For `CC(C)c1ccc(CC(=O)N[C@H](C)c2ccc(OCC(F)(F)F)cn2)cc1` [MK-8998], the anti-proliferative activity result in series [1] is “without anti-proliferative activity; also recorded: little or no effect”. The “selectivity for the −90 mV state relative to −40 mV” value in series [2] is recorded as “decreased selectivity”. Also, in series [3], the “potency for inhibition of the T-type calcium channel” value is “high potency”.

Turning to `COc1ccc(CCN2CCC[C@H]2COC(c2ccccc2)c2ccc(Cl)cc2)cc1` (stereo partly drawn) [TH-1177], in series [2], the “inhibition of T-type Ca^2+ channel activity” value is listed as “inhibit”.

For the molecule `C[C@@H](NC(=O)Cc1ccc(C2CC2)cc1)c1ccc(OCC(F)(F)F)cn1` [TTA-A2], the anti-proliferative activity entry in series [1] is “without anti-proliferative activity; also recorded: little or no effect”. In addition, the “selectivity for the −90 mV state relative to −40 mV” value in series [2] was “decreased selectivity”. Besides, in series [3], the “potency for inhibition of the T-type calcium channel” value is on record as “high potency”.

As to `O=c1[nH]c2cc(Cl)ccc2n1C1CCN(CCCC(c2ccc(F)cc2)c2ccc(F)cc2)CC1` [chlopimozide], the anti-proliferative activity result in series [1] is reported as “anti-proliferative”.

In the case of `COCC(=O)O[C@]1(CCN(C)CCCc2nc3ccccc3[nH]2)CCc2cc(F)ccc2[C@@H]1C(C)C` [mibefradil], in series [4], the “effect on the cytotoxic effect of temozolomide” value is listed as “significantly increased; also recorded: restored the sensitivity to temozolomide”. In addition, the anti-proliferative activity entry in series [1] is on record as “inhibit cancer cell proliferation”; in series [1] (listed as Mibefradil) it was “antiproliferative”. Also, the “inhibition of T-type Ca^2+ channel activity” value in series [2] was “inhibit”. Moreover, the “selectivity for the −90 mV state relative to −40 mV” value in series [2] was “preferentially blocks the −90 mV state”. Also, the IC50 in series [3] (cell membrane potential about −30 mV to −60 mV) was at least 100 nM; in series [3] (cell membrane potential of −80 mV to −90 mV), about 1000 nM. Besides, the “preference for blocking channels at about −30 mV to −60 mV over −90 mV” value in series [5] is listed as 10 to 1. For the same molecule, in series [6], the “inhibition of CYP 450 3A4” value was “inhibition”. In series [7], the tolerability entry is recorded as “remarkably well tolerated”.

The term IC50 denotes the point on the concentration scale where inhibition reaches its midpoint.
